Assay results from article PMC10005301, “Prediction of the n-Octanol/Water Partition Coefficients of Basic Compounds Using Multi-Parameter QSRR Models Based on IS-RPLC Retention Behavior in a Wide pH Range” (Molecules, 2023).
Like-named read-outs stand apart in the source and are kept apart here.

Tests used:
[1] = IS-RPLC retention on silica-based C18 column, logkw by linear solvent strength model; format: physicochemical
Protocol: (§1) The retention behavior of the 42 basic compounds (Table 1) were investigated at different ratios of methanol (φ = 0.7–0.1, the interval was 0.1 or 0.05 based on the retention of the investigated solutes). The logk values were plotted versus φ for each solute at pH 7.0, pH 8.0, pH 9.0, and pH 10.0. […] The logD values of the model compounds and verification compounds calculated using Equation (S3) based on the logP and pH values are also listed in Table 1.
The column temperature was set at 30 °C. Methanol and 20 mmol/L ammonium phosphate buffer (pH = 7.0, 8.0, 9.0, 10.0) was used as the mobile phase to perform isocratic elution. The injection volume was 10 µL and the detection wavelength for each eluted compound was set at its optimum absorption wavelength.
(§2) At each pH, the retention time (tR) of every analyte was determined for at least four different volume fractions (φ) of methanol. All the tR values of the solutes were obtained by averaging the results of at least three independent injections. The tR value was corrected using dual-point retention time correction (DP-RTC). For a detailed description of the process, refer to our previous work. For the different hydrophobicities of the studied compounds, benzene, toluene, and benzyl alcohol were used as anchor compounds in the DP-RTC method. The dead time t0 was determined using uracil. For each solute, the logarithm of k was plotted against φ, and logkw was obtained using the Equation (S1). The logD values of the model compounds were calculated using Equation (S3), and the logD–logkw models were established with Equation (S4). The statistical analysis for the regression model was accomplished using Origin 9.4. […]
(§3) Where, k is the capacity factor, φ is the volume fraction of organic modifier in the mobile phase, and S is the constant obtained by linear regression in the equations. […]
The Eqs. (S1) and (S2) are the basis for the determination of logP by revered- phase liquid chromatography (RPLC) method. For dissociative solutes, it has been confirmed by many studies that the logD calibrated from logP has a better linear correlation with logkw than logP. […]

[2] = parameters: method as in UFZ-LSER database; settings: hydrogen bonding parameter B; ref UFZ-LSER database; cited from earlier work
[3] = logD determined by multi-parameter QSRR models from IS-RPLC logkw
Protocol: Multi-parameter QSRR models including logD, logkw, ne, A, and B were established using the multiple linear regression (MLR) method. In the process of linear fitting, ne, A, B, and their different combinations were introduced to optimize the models.
The logD values reported in the literature for these four compounds were calculated using Equation (S3) with corresponding pKa, logP, and pH values.
At each pH, the retention time (tR) of every analyte was determined for at least four different volume fractions (φ) of methanol. All the tR values of the solutes were obtained by averaging the results of at least three independent injections. The tR value was corrected using dual-point retention time correction (DP-RTC). For a detailed description of the process, refer to our previous work. For the different hydrophobicities of the studied compounds, benzene, toluene, and benzyl alcohol were used as anchor compounds in the DP-RTC method. The dead time t0 was determined using uracil. For each solute, the logarithm of k was plotted against φ, and logkw was obtained using the Equation (S1). The logD values of the model compounds were calculated using Equation (S3), and the logD–logkw models were established with Equation (S4). The statistical analysis for the regression model was accomplished using Origin 9.4.

[4] = From the text: as §1, §2, §3
and logkw, which is usually called Collander equation [25 ]. lo g lo g wPm k n= + (S2)
Where, m and n are constants obtained by linear regression.
The Eqs. (S1) and (S2) are the basis for the determination of logP by revered- phase liquid chromatography (RPLC) method. For dissociative solutes, it has been confirmed by many studies that the logD calibrated from logP has a better linear correlation with logkw than logP.
For basic compounds, the logD value can be calibrated from Eq. (S3), and the Collander equation can be rewritten into Eq. (S4). log log( )D − −+ −+= + ++P […]
lo g ' lo g 'Dm k n= +w (S4)
Where, pKa1, pKa2 , … p Kan are the dissociation constants of basic compounds of corresponding acids in the mobile phase, pH is the pH value of mobile phase, m′ and n′ are fitting parameters. Han et al. pointed out that although mobile phase pH and pKa of solutes will change along with the varied organic modifier fraction, the difference between a couple of relevant pH and pKa is a constant. Therefore, the used pH and pKa in this paper were both the values obtained at 100% aqueous phase. […]

[5] = pH 7.0, methanol/20 mmol/L ammonium phosphate buffer, Welch Xtimate C18, 30 °C, 100% aqueous extrapolation
[6] = pH 8.0, methanol/20 mmol/L ammonium phosphate buffer, Welch Xtimate C18, 30 °C, 100% aqueous extrapolation
[7] = pH 9.0, methanol/20 mmol/L ammonium phosphate buffer, Welch Xtimate C18, 30 °C, 100% aqueous extrapolation
[8] = pH 10.0, methanol/20 mmol/L ammonium phosphate buffer, Welch Xtimate C18, 30 °C, 100% aqueous extrapolation
[9] = IS-RPLC retention (logkw), pH 7
[10] = IS-RPLC retention (logkw), pH 8
[11] = IS-RPLC retention (logkw), pH 9
[12] = IS-RPLC retention (logkw), pH 10
[13] = pH 7.0, calculated with literature logP, pKa and pH, Equation (S3)
[14] = pH 8.0, calculated with literature logP, pKa and pH, Equation (S3)
[15] = pH 9.0, calculated with literature logP, pKa and pH, Equation (S3)
[16] = pH 10.0, calculated with literature logP, pKa and pH, Equation (S3)

Compound | logkw-pH 7.0 [1, 5] | logkw-pH 8.0 [1, 6] | logkw-pH 9.0 [1, 7] | logkw-pH 10.0 [1, 8] | chromatographic logD [3, 9] | chromatographic logD [3, 10] | chromatographic logD [3, 11] | chromatographic logD [3, 12] | B [2] | chromatographic logD ([3]; pH 7) | chromatographic logD ([3]; pH 8) | chromatographic logD ([3]; pH 9) | chromatographic logD ([3]; pH 10) | further results
O=C(n1ccnc1)n1ccnc1 [1,1’-Carbonyldiimidazole] | −0.39 | −0.38 | −0.27 | −0.15 | -0.52 | -0.46 | -0.84 | -0.89 | 1.47 | – | – | – | – | –
Nc1ccccc1N [1,2-diaminobenzene] | – | – | – | – | – | – | – | – | 1.26 | 0.38 | 0.38 | 0.07 | 0.28 | logkw-pH 7.0 ([1]; pH 7): 0.50; logkw-pH 8.0 ([1]; pH 8): 0.49; logkw-pH 9.0 ([1]; pH 9): 0.29; logkw-pH 10.0 ([1]; pH 10): 0.60
Nc1ccc([N+](=O)[O-])cc1[N+](=O)[O-] [2,4-Dinitroaniline] | 1.80 | 1.86 | 1.78 | 1.92 | – | – | – | – | 1.44 | 1.71 | 1.69 | 1.58 | 1.64 | –
Nc1c(Cl)cc([N+](=O)[O-])cc1[N+](=O)[O-] [2-Chloro-4,6-dinitroaniline] | 2.19 | 2.25 | 2.26 | 2.30 | – | – | – | – | 1.56 | 2.11 | 2.07 | 1.99 | 1.97 | –
Nc1ccc([N+](=O)[O-])cc1Cl [2-Chloro-4-nitroaniline] | – | – | – | – | – | – | – | – | 1.41 | 1.99 | 1.96 | 1.93 | 1.92 | logkw-pH 7.0 ([1]; pH 7): 2.07; logkw-pH 8.0 ([1]; pH 8): 2.13; logkw-pH 9.0 ([1]; pH 9): 2.14; logkw-pH 10.0 ([1]; pH 10): 2.18
Cc1cc([N+](=O)[O-])ccc1N [2-Methyl-4-nitroaniline] | 1.76 | 1.79 | 1.46 | 1.84 | – | – | – | – | 1.22 | 1.67 | 1.63 | 1.31 | 1.6 | –
Cc1ccccn1 [2-Picoline] | 1.31 | 1.32 | 1.34 | 1.36 | – | – | – | – | 0.60 | – | – | – | – | logDpH 7.0 ([4]; pH 7): 1.05; logDpH 8.0 ([4]; pH 8): 1.09; logDpH 9.0 ([4]; pH 9): 1.09; logDpH 10.0 ([4]; pH 10): 1.09
Cc1c[nH]cn1 [4-Methylimidazole] | – | – | – | – | -0.54 | 0.06 | 0.08 | 0.07 | 0.64 | – | – | – | – | logkw-pH 7.0 ([1]; pH 7): −0.08; logkw-pH 8.0 ([1]; pH 8): 0.19; logkw-pH 9.0 ([1]; pH 9): 0.32; logkw-pH 10.0 ([1]; pH 10): 0.39
Nc1ccccc1 [Aniline] | 0.96 | 0.95 | 0.97 | 1.02 | – | – | – | – | 1.86 | – | – | – | – | logDpH 7.0 ([4]; pH 7): 0.90; logDpH 8.0 ([4]; pH 8): 0.90; logDpH 9.0 [4, 15]: 0.90; logDpH 10.0 ([4]; pH 10): 0.90
c1ccncc1 [Pyridine] | – | – | – | – | – | – | – | – | – | – | – | – | – | logkw-pH 7.0 ([1]; pH 7): 0.70; logkw-pH 8.0 ([1]; pH 8): 0.92; logkw-pH 9.0 ([1]; pH 9): 1.01; logkw-pH 10.0 ([1]; pH 10): 1.05

Now from value to compound, other results behind:

logkw-pH 7.0 [1, 5] | logkw-pH 8.0 [1, 6] | logkw-pH 9.0 [1, 7] | logkw-pH 10.0 [1, 8] | chromatographic logD [3, 9] | chromatographic logD [3, 10] | chromatographic logD [3, 11] | chromatographic logD [3, 12] | Compound | B [2] | chromatographic logD ([3]; pH 7) | chromatographic logD ([3]; pH 8) | chromatographic logD ([3]; pH 9) | chromatographic logD ([3]; pH 10) | further results
0.17 | 0.07 | −0.16 | 0.21 | – | – | – | – | Nc1cccc(N)c1 [1,3-diaminobenzene] | 1.28 | 0.03 | -0.02 | -0.41 | -0.15 | –
1.36 | 1.36 | 1.38 | 1.43 | 1.27 | 1.22 | 0.95 | 0.88 | Nc1ncncn1 [2-Amino-1,3,5-triazine] | 1.00 | – | – | – | – | –
1.36 | 1.36 | 1.38 | 1.43 | 1.28 | 1.22 | 0.94 | 0.86 | COc1nc(C)nc(N)n1 [2-Amino-4-methyl-6-methoxy-s-triazine] | 1.07 | – | – | – | – | –
1.78 | 1.83 | 1.83 | 1.47 | 1.7 | 1.67 | 1.2 | 0.69 | Nc1cccc(S(=O)(=O)c2cccc(N)c2)c1 [3,3’-Sulfonyldianiline] | 1.82 | – | – | – | – | –
1.13 | 1.12 | 1.14 | 1.18 | – | – | – | – | Nc1ccc(F)cc1 [4-Fluoroaniline] | 1.76 | – | – | – | – | logDpH 7.0 [4, 13]: 1.15; logDpH 8.0 [4, 14]: 1.15; logDpH 9.0 [4, 15]: 1.15; logDpH 10.0 [4, 16]: 1.15
2.22 | 2.28 | 2.29 | 2.28 | 2.14 | 2.1 | 2.13 | 2.08 | Nc1ccc(I)cc1 [4-Iodoaniline] | 1.53 | – | – | – | – | –
1.18 | 1.18 | 1.20 | 1.30 | 2.29 | 2.05 | 1.2 | 1.87 | O=C(O)c1cc(O)nc(O)c1 [Citrazinic acid] | 1.23 | – | – | – | – | –
0.80 | 0.66 | 0.82 | 0.88 | 0.7 | 0.54 | 0.17 | 0.04 | CCC(C(N)=O)N1CCCC1=O (stereo not drawn) [Etiracetam] | 1.03 | – | – | – | – | –
−0.53 | −0.39 | −0.34 | −0.16 | – | – | – | – | c1c[nH]cn1 [Imidazole] | 0.71 | – | – | – | – | –
0.97 | 1.61 | 2.13 | 2.44 | – | – | – | – | CN(C)Cc1ccccc1 [N, N-Dimethylbenzylamine] | 0.67 | – | – | – | – | logDpH 7.0 [4, 13]: 0.17; logDpH 8.0 [4, 14]: 1.12; logDpH 9.0 [4, 15]: 1.77; logDpH 10.0 [4, 16]: 1.95
